We go through two substances from patent US20240384344A1, “METHOD FOR LABELING CELLS” (RIKEN, priority 2022, published 2024).

The target of data set [1] is mouse E-cadherin (CDH1) (mouse) (UniProt P09803). Description: flow cytometry, undifferentiated mouse R1 ES cells, biotinylated anti-CDH1 antibody then PE-conjugated TotalSeq streptavidin. Background: Flow cytometry measures light scatter and fluorescence of single cells or particles in a stream.
For data set [2] the target is unchanged. Put plainly: flow cytometry, differentiated R1 ES cells (only a part of them expresses CDH1), biotinylated anti-CDH1 antibody then PE-conjugated TotalSeq streptavidin.
Data set [3] concerns undifferentiated ES cells. Description: Cell viability test (colony formation). The data set is classed as cell-based, mouse. The protocol:
Undifferentiated ES cells were treated with 100 μg/mL S-NHS-biotin (10-fold the concentration used for multiplex scRNA-seq) and TotalSeq® PE streptavidin, and 3×10^3 cells were seeded on a 3.5 cm, gelatin-treated culture dish. Concurrently, the same number of untreated cells were seeded. After 5-day culture, the cells were stained with hematoxylin, and the colony formation ratios of untreated control and treated sample were examined.
A series of experimental operations by the USB method has a possibility to compromise cell states and growth. To examine this possibility, ES cells were treated by the USB method, and seeded on a culture dish to measure colony formation ability (FIG. 7). As a result, even though cells were treated with S-NHS-biotin at a concentration 10-fold the concentration used in the USB method (0.1 mg/mL), the difference of colony formation rates between the control group without labeling and the USB group were not observed. Consequently, the USB method was concluded to not change the cell viability.

For data set [4], the system named is mouse growth plate chondrocytes. Description: Flow cytometry of labeled growth plate chondrocytes. The data set is classed as cell-based. Particulars: mouse growth plate chondrocytes (FIG. 11). The protocol: (§1) Specifically, healthy F344 rat lungs were cut into 0.5 mm^2 with razor blade, digested in a Liberase solution [RPMI-1640 (Natalai Tesque)] added with 10% FBS, 10 mM HEPES pH 7.2-7.4, 0.25 mg/ml Liberase™ (F. Hoffmann-La Roche Ltd.), and 2000 U/mL DNase I (Merck KGaA) for 60 minutes at 37° C. to prepare a SINGLE CELL suspension solution. Dead cells were removed by Percoll. Alternatively, growth plate cartilage from proximal tibia was collected from 3-week-old mice and cut finely into 1 to 2 mm pieces. Next, the cut pieces were dispersed into SINGLE CELLs (group of single cells) with Liberse™ (F. Hoffmann-La Roche Ltd.) solution for 120 to 210 minutes while continuously agitating.
(§2) Reagents for cell staining were biotinylated CDC324 (E-cadherin) rat monoclonal antibody (Thermo Fisher Scientific™, 13-3249-82), TotalSeq® PE streptavidin (BioLegend, Inc., 405251), PerCP-Cy5.5 anti-rat CD45 (Bio-Rad Laboratories, Inc., clone OX-1), PE anti-rat CD31 (Bio-Rad Laboratories, Inc., Clone TLD-3A12), streptavidin-APC (BioLegend, Inc., 405207), APC rat anti-mouse CD45 (BD Biosciences, 559864), and PE anti-mouse H-2 antibody (BioLegend, Inc., 125505).
(§3) The stained cells were analyzed by flow cytometry using EC800 Cell Analyzer (Sony Corporation), Cyto FLEX flow cytometer (Beckman Coulter, Inc.), or FACS Arria II flow cytometer (BD Biosciences).

Data set [5] concerns rat lung cells (CD31 positive, CD45 positive, double negative). Put plainly: Flow cytometry of USB labeling of fractionated lung cells (APC-labeled streptavidin). The data set is classed as cell-based. Particulars: CD45 positive and double negative fractions (FIG. 12). The protocol:
as §1, §2, §3

Data set [6] is described as follows: Storage stability of S-NHS-biotin stock solution. The data set is classed as physicochemical. As to conditions: stock solution at −80° C. The protocol: A S-NHS-biotin stock solution was prepared by dissolving EZ-Link sulfo-NHS-biotin (Thermo Fisher Scientific™, 21217) in PBS at a concentration of 10 mg/mL, and dispensed and stored at […] until use.
For data set [7], the system named is differentiated ES cells (R1, embryoid body formation). Put plainly: Flow cytometry of labeling efficiency (PE-positive cells), USB method vs Ab method. As to conditions: TotalSeq PE streptavidin detection. In kind it is cell-based, mouse. The protocol: After removing the feeder cells, 1×10^4 ES cells were seeded in 100 μL differentiation medium (GMEM supplemented with 15% FBS, 0.11 mg/mL sodium pyruvate, 0.1 mM 2-mercaptoethanol, 1×non-essential amino acid, and 1×GlutaMAX supplement) in a U-bottom 96-well low cell attachment plate (Nunclon Sphera 96-Well U-Shaped-Bottom Microplate; Thermo Fisher ScientificTM, 174925), and cultured for 24 hours. Spheroids made in the plate were transferred to a 90 mm, low cell attachment culture dish (Nunclon Sphera 90 mm dish, 174945), and cultured for further 4 days to form embryoid bodies (EBs). The EBs were washed three times with PBS, dissociated into […] CELLs (group of single cells) using 0.25% trypsin, the cells were seeded on a gelatin-treated culture dish, and cultured for 7 days to induce further differentiation. Single cells containing 0.5-2×10^6 […] CELLs prepared in “3. […] After incubation on ice, 3 mL ice-cold PBS containing 3% FBS was added to the reaction, and the cells were centrifuged at 4° C., 300 g for 5 minutes. The cells were further washed twice with Cell Staining Buffer (BioLegend, Inc., 420201), and then kept on ice until barcoded oligo DNA binding in the next step. […] The stained cells were analyzed by flow cytometry using EC800 Cell Analyzer (Sony Corporation), Cyto FLEX flow cytometer (Beckman Coulter, Inc.), or […] flow cytometer (BD Biosciences). […]

Data set [8] concerns undifferentiated mouse ES cells (R1 line). Described as above. The data set is classed as cell-based. Particulars: TotalSeq PE streptavidin detection. The protocol:
Single cells containing 0.5-2×10^6 […] CELLs prepared in “3. […] After incubation on ice, 3 mL ice-cold PBS containing 3% FBS was added to the reaction, and the cells were centrifuged at 4° C., 300 g for 5 minutes. The cells were further washed twice with Cell Staining Buffer (BioLegend, Inc., 420201), and then kept on ice until barcoded oligo DNA binding in the next step. Single cells containing 0.5-2×10^6 […] CELLs prepared in “3. […] An ice-cold primary antibody solution (0.05 μg/mL biotinylated CDC324 [E-cadherin] rat monoclonal antibody [Thermo Fisher ScientificTM, 13-3249-82]) was mixed with the cell suspension solution, and the cell was incubated on ice for 30 minutes. Next, the cells were washed three times with ice-cold Cell Staining Buffer, and then kept on ice until binding of barcoded DNA. […] The cell suspension solution was filtered through 40 μm cell strainer, the same number of cells from each sample was gathered in a single tube and used for cell trapping and cDNA synthesis using a BD RhapsodyTM apparatus. First, by the same method as in the above 1-3, SINGLE CELL suspension solutions of undifferentiated ES cells and differentiated ES cells were prepared. […] The stained cells were analyzed by flow cytometry using EC800 Cell Analyzer (Sony Corporation), Cyto FLEX flow cytometer (Beckman Coulter, Inc.), or […] flow cytometer (BD Biosciences). […]

Sequence of UniProt P09803 (P09803 157-884): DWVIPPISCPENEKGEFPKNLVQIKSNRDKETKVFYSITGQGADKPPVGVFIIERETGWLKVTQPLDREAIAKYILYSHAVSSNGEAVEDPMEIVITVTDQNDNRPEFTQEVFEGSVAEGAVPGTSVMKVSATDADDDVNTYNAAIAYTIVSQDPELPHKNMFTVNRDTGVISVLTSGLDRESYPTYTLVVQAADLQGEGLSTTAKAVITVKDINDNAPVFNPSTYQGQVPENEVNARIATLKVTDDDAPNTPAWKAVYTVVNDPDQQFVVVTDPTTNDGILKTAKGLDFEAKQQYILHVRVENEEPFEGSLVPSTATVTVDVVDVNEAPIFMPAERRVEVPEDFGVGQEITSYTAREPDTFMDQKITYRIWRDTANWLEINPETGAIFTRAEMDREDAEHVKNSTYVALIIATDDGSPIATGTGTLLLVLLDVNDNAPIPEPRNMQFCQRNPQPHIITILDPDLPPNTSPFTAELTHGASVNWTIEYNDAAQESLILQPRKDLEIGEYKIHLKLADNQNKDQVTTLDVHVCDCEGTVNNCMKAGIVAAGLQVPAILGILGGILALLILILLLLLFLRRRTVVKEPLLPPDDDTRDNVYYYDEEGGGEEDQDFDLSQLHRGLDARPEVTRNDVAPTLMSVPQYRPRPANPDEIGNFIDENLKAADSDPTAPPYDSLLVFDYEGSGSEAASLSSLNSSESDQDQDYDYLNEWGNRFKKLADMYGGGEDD

Regarding “biotinylated CDC324 [E-cadherin] rat monoclonal antibody [Thermo Fisher Scientific, 13-3249-82]”, the percent PE-positive cells was determined as 87.8% in data set [1] and 9.9% in data set [2].
“sulfo-N-hydroxysuccinimide-biotin [S-NHS-biotin]”: the “difference of colony formation rates between the control group without labeling and the USB group” value in data set [3] (S-NHS-biotin 0.1 mg/mL (10-fold the concentration used in the USB method), 5-day culture) is “not observed”. The “effect on viability of undifferentiated ES cells” value in data set [3] (S-NHS-biotin treated vs control untreated cells (FIG. 7)) is recorded as “does not affect the viability”. Besides, in data set [4], the labeling/staining of chondrocytes result is “efficiently labeled”. For the same substance, the “labeling of fractionated lung cells” value in data set [5] is reported as “All fractionated cells were found to have been labeled”. In addition, the “time stock solution is stable” value in data set [6] is given as “more than 1 year”. For the same substance, the results for the “percentage of PE-positive cells” value in data set [7] and in data set [8] were 96.4% and 99.6%, respectively.
